According to ChEMBL document CHEMBL1909046, “DrugMatrix in vitro pharmacology data”:

Experiments:
Cannabinoid receptor 1 = Cannabinoid receptor 1 (Homo sapiens, UniProt P21554); assay type: cell membranes, Membrane; settings: chem-1; note: in other assays of this panel Not Active means under 50% inhibition at 10 µM
Endothelin-1 receptor = target: T1, Endothelin-1 receptor (Homo sapiens, UniProt P25101); assay type: cell membranes, Membrane; settings: cho-k1; note: in other assays of this panel Not Active means under 50% inhibition at 10 µM
T1 sequence (P25101 whole entry): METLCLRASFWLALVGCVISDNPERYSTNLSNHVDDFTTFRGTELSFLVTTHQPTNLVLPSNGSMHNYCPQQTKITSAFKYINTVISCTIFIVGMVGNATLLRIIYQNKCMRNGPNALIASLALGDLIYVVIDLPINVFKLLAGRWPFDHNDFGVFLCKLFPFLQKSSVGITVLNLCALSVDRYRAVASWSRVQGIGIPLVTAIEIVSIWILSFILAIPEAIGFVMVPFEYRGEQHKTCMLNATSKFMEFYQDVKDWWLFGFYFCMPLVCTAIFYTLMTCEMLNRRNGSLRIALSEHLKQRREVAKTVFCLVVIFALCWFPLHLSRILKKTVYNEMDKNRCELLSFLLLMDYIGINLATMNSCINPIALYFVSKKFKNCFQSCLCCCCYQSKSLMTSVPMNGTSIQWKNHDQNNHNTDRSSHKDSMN

[1] = target: T2, Neuropeptide Y receptor type 1 (Homo sapiens, UniProt P25929); assay type: cell membranes, Membrane; settings: sk-n-mc; note: in other assays of this panel Not Active means under 50% inhibition at 10 µM
T2 sequence (P25929 whole entry): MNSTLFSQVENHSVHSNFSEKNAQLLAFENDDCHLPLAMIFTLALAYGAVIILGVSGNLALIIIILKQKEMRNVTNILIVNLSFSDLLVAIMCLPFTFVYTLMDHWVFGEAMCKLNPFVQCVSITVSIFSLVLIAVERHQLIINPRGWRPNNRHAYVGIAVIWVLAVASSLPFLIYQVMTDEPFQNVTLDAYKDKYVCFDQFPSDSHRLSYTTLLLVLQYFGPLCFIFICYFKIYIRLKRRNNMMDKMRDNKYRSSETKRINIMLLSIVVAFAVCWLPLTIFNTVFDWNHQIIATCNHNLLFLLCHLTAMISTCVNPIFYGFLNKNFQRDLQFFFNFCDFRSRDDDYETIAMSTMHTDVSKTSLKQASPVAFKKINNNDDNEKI

[2] = target: T3, Vasoactive intestinal polypeptide receptor 1 (Homo sapiens, UniProt P32241); assay type: cell membranes, Membrane; settings: ht-29; note: in other assays of this panel Not Active means under 50% inhibition at 10 µM
T3 sequence (P32241 whole entry): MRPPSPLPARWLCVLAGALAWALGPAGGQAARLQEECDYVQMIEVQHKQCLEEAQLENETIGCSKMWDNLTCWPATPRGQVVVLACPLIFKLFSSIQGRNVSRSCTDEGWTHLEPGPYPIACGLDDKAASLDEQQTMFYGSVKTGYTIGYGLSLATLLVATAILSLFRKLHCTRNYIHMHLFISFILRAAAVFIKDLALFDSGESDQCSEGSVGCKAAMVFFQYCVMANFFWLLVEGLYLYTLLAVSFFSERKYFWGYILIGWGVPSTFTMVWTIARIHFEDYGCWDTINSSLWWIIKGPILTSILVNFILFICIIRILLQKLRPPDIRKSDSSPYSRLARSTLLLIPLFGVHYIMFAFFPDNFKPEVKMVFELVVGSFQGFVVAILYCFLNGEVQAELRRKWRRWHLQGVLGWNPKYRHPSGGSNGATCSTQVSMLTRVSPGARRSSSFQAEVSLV

Caspase-1 = target: T4, Caspase-1 (Homo sapiens, UniProt P29466); parameters: species or system Escherichia coli
T4 sequence (P29466 whole entry): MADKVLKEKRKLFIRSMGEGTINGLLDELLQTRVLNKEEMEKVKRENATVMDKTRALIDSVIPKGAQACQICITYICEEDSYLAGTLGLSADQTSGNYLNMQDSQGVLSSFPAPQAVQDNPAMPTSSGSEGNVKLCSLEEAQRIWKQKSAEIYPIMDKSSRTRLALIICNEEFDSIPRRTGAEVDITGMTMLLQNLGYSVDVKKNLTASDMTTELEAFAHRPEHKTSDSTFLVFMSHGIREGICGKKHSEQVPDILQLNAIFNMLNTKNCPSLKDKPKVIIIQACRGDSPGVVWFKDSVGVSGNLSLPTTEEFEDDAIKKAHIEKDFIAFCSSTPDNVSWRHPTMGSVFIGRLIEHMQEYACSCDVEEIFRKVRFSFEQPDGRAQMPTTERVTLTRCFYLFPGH

[3] = target: T5, C-C chemokine receptor type 4 (Homo sapiens, UniProt P51679); assay type: cell membranes, Membrane; settings: chem-1; note: in other assays of this panel Not Active means under 50% inhibition at 10 µM
T5 sequence (P51679 whole entry): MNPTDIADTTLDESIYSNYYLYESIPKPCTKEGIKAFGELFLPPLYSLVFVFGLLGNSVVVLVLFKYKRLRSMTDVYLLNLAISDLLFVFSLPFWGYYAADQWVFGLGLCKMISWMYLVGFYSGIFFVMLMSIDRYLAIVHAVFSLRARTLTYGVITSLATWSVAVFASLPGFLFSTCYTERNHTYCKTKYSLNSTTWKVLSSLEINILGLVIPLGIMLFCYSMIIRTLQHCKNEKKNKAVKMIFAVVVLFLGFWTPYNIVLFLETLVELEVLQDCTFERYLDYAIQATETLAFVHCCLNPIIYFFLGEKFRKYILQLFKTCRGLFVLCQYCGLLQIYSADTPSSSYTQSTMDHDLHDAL

[4] = DRUGMATRIX: Calcium Channel Type L, Dihydropyridine radioligand binding (ligand: [3H] Nitrendipine); assay type: cell membranes, Rattus norvegicus, Wistar, Cerebral cortex, Membrane; settings: Not Active = under 50% inhibition at 10 µM
Adenosine receptor A1 = target: T6, Adenosine receptor A1 (Homo sapiens, UniProt P30542); assay type: cell membranes, CHO, Membrane; settings: cho
T6 sequence (P30542 whole entry): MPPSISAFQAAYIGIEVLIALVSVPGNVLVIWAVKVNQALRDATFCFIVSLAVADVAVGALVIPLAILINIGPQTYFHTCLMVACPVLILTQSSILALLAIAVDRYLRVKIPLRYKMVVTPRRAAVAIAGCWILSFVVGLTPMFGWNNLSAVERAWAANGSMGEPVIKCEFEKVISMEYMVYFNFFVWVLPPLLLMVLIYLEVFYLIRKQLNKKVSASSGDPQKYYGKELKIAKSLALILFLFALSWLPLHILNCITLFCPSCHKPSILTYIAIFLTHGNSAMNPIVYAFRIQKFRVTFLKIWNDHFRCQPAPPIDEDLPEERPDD

[5] = target: Prostaglandin G/H synthase 1 (Homo sapiens, UniProt P23219); experiment: biochemical; assay type: tissue-based, Platelet; settings: platelet
Prostaglandin G/H synthase 1, sequence (P23219 whole entry): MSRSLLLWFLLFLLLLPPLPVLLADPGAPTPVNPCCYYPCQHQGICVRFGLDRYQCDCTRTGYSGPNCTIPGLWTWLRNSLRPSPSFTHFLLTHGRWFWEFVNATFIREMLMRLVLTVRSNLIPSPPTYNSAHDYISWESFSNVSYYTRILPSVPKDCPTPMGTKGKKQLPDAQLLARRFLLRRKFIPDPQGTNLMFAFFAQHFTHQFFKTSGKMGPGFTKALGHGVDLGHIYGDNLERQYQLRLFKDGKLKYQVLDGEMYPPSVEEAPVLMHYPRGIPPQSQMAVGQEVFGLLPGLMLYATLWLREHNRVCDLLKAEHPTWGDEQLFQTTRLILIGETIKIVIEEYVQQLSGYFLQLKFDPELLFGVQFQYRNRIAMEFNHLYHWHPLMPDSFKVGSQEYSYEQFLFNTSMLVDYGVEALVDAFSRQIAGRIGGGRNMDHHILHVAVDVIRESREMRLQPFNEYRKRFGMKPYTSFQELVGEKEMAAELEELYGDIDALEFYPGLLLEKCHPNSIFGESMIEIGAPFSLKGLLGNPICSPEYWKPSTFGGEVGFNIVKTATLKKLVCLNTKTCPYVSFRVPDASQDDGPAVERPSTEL

[6] = DRUGMATRIX: ATPase, Na+/K+ enzyme inhibition (substrate: ATP); assay type: tissue-based, Sus scrofa, Heart; settings: Not Active = under 50% inhibition at 10 µM

Cannabinoid receptor 1, sequence (P21554 whole entry): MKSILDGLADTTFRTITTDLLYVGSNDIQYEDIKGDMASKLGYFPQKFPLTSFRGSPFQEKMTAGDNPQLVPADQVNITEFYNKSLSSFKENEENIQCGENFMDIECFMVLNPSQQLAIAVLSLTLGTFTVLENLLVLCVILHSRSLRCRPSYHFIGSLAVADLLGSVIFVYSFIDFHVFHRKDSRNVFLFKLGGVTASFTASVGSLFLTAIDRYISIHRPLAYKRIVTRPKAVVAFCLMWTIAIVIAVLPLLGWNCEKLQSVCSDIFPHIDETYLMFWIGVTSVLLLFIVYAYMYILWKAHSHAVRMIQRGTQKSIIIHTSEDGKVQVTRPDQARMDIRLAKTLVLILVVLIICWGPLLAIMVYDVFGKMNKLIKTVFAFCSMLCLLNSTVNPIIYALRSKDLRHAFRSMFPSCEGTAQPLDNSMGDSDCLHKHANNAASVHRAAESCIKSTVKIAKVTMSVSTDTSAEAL

Nc1nnc(-c2cccc(Cl)c2Cl)c(N)n1 [LAMOTRIGINE]
Not Active: IC50 (Cannabinoid receptor 1) | IC50 (Endothelin-1 receptor) | IC50 [1] | IC50 [2] | IC50 (Caspase-1) | IC50 [3] | IC50 [4] | Ki [4] | IC50 (Adenosine receptor A1) | IC50 [5] | IC50 [6] | Ki [6]

CC(C)(C)NCC(O)c1cc(O)cc(O)c1 (centres undefined) [TERBUTALINE]
Not Active: IC50 (Cannabinoid receptor 1) | IC50 (Endothelin-1 receptor) | IC50 [1] | IC50 [2] | IC50 (Caspase-1) | IC50 [3] | IC50 [4] | Ki [4] | IC50 (Adenosine receptor A1) | IC50 [5] | IC50 [6] | Ki [6]

O=[N+]([O-])c1cc([As](=O)(O)O)ccc1O [ROXARSONE]
Not Active: IC50 (Cannabinoid receptor 1) | Ki (Cannabinoid receptor 1) | IC50 (Endothelin-1 receptor) | Ki (Endothelin-1 receptor) | IC50 [1] | Ki [1] | IC50 [2] | Ki [2] | IC50 (Caspase-1) | Ki (Caspase-1) | IC50 [3] | Ki [3] | IC50 [4] | Ki [4] | IC50 (Adenosine receptor A1) | Ki (Adenosine receptor A1) | IC50 [5] | Ki [5] | IC50 [6] | Ki [6]

CC(C)(C)NC(=O)[C@@H]1CN(Cc2cccnc2)CCN1C[C@@H](O)C[C@@H](Cc1ccccc1)C(=O)N[C@H]1c2ccccc2C[C@H]1O.O
Not Active: IC50 (Cannabinoid receptor 1) | IC50 (Endothelin-1 receptor) | IC50 [1] | IC50 [2] | IC50 (Caspase-1) | IC50 [3] | IC50 [4] | Ki [4] | IC50 (Adenosine receptor A1) | IC50 [5] | IC50 [6] | Ki [6]

Nc1ccc(S(N)(=O)=O)cc1 [SULFANILAMIDE]
Not Active: IC50 (Cannabinoid receptor 1) | IC50 (Endothelin-1 receptor) | IC50 [1] | IC50 [2] | IC50 (Caspase-1) | IC50 [3] | IC50 [4] | Ki [4] | IC50 (Adenosine receptor A1) | IC50 [5] | IC50 [6] | Ki [6]

Cc1ncc([N+](=O)[O-])n1CC(C)O (centres undefined) [SECNIDAZOLE]
Not Active: IC50 (Cannabinoid receptor 1) | IC50 (Endothelin-1 receptor) | IC50 [1] | IC50 [2] | IC50 (Caspase-1) | IC50 [3] | IC50 [4] | Ki [4] | IC50 (Adenosine receptor A1) | IC50 [5] | IC50 [6] | Ki [6]

Oc1c(I)cc(I)c2cccnc12 [IODOQUINOL]
Not Active: IC50 (Cannabinoid receptor 1) | IC50 (Endothelin-1 receptor) | IC50 [1] | IC50 [2] | IC50 (Caspase-1) | IC50 [3] | IC50 [4] | Ki [4] | IC50 (Adenosine receptor A1) | IC50 [5] | IC50 [6] | Ki [6]

NNC(=O)c1ccncc1 [ISONIAZID]
Not Active: IC50 (Cannabinoid receptor 1) | IC50 (Endothelin-1 receptor) | IC50 [1] | IC50 [2] | IC50 (Caspase-1) | IC50 [3] | IC50 [4] | Ki [4] | IC50 (Adenosine receptor A1) | IC50 [5] | IC50 [6] | Ki [6]
